ChEMBL document CHEMBL5512607, “Journey of Von Hippel-Lindau (VHL) E3 ligase in PROTACs design: From VHL ligands to VHL-based degraders” (Eur J Med Chem, 2024)
One block for each compound: values may come before it.

Tests used:
[1] = molecular target: T1, Von Hippel-Lindau disease tumor suppressor/Elongin B/Elongin C (Homo sapiens, UniProt P40337); test: Inhibition of VHL (unknown origin) (1 to 213 residues)/ElonginC/ElonginB expressed in Escherichia coli BL21 (DE3) using (FAM)-labeled HIF-1alpha peptide as substrate incubated for 2 hrs by fluorescence polarization assay
T1 sequence (P40337 whole entry, looked up, the tested form may be a part): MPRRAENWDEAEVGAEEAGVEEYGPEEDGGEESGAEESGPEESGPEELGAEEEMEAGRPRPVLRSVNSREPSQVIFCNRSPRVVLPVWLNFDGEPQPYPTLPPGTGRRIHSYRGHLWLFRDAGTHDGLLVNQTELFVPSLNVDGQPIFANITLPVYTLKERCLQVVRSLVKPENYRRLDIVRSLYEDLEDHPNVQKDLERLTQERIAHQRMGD

[2] = molecular target: T2, von Hippel-Lindau disease tumor suppressor (Homo sapiens, UniProt P40337); test: Inhibition of NanoLuc-fused VHL (unknown origin) transfected in live HEK293 cells using NanoGlo as substrate incubated for 1 hrs by tracer based NanoBRET assay; assay type: cell-based
T2 sequence (P40337 whole entry, the tested form may be a part): as the sequence (P40337 whole entry, looked up, the tested form may be a part) above

[3] = molecular target: T2, von Hippel-Lindau disease tumor suppressor; test: Binding affinity to VHL (unknown origin) assessed as dissociation constant by fluorescence polarization assay
[4] = molecular target: T1, Von Hippel-Lindau disease tumor suppressor/Elongin B/Elongin C; test: Inhibition of VHL/Elongin B/Elogin C (unknown origin) using FAM-DEALA-Hyp-YIPD as substrate by fluorescence polarization assay; assay type: protein-complex assay
[5] = molecular target: von Hippel-Lindau disease tumor suppressor/Bromodomain-containing protein 4 (Homo sapiens, UniProt O60885+P40337); test: PROTAC activity at human VHL/BRD4 in human HeLa cells assessed as degradation of BRD4 incubated for 24 hrs by Western blot analysis; assay type: cell-based
Sequence of von Hippel-Lindau disease tumor suppressor/Bromodomain-containing protein 4 (P40337 whole entry, looked up, other chains not shown): as the sequence (P40337 whole entry, looked up, the tested form may be a part) above

[6] = molecular target: T2, von Hippel-Lindau disease tumor suppressor; test: Inhibition of VHL (unknown origin)
[7] = system: von Hippel-Lindau disease tumor suppressor/Epidermal growth factor receptor (Homo sapiens), P00533+P40337 [L858R,T790M]; test: PROTAC activity at VHL/EGFR L858R/T790M double mutant in human NCI-H1975 cells assessed as maximal degradation of EGFR incubated for 24 hrs by immunoblotting analysis relative to control; assay type: cell-based
Sequence of von Hippel-Lindau disease tumor suppressor/Epidermal growth factor receptor (Homo sapiens), P00533+P40337 [L858R,T790M] (P00533 whole entry T790M/L858R): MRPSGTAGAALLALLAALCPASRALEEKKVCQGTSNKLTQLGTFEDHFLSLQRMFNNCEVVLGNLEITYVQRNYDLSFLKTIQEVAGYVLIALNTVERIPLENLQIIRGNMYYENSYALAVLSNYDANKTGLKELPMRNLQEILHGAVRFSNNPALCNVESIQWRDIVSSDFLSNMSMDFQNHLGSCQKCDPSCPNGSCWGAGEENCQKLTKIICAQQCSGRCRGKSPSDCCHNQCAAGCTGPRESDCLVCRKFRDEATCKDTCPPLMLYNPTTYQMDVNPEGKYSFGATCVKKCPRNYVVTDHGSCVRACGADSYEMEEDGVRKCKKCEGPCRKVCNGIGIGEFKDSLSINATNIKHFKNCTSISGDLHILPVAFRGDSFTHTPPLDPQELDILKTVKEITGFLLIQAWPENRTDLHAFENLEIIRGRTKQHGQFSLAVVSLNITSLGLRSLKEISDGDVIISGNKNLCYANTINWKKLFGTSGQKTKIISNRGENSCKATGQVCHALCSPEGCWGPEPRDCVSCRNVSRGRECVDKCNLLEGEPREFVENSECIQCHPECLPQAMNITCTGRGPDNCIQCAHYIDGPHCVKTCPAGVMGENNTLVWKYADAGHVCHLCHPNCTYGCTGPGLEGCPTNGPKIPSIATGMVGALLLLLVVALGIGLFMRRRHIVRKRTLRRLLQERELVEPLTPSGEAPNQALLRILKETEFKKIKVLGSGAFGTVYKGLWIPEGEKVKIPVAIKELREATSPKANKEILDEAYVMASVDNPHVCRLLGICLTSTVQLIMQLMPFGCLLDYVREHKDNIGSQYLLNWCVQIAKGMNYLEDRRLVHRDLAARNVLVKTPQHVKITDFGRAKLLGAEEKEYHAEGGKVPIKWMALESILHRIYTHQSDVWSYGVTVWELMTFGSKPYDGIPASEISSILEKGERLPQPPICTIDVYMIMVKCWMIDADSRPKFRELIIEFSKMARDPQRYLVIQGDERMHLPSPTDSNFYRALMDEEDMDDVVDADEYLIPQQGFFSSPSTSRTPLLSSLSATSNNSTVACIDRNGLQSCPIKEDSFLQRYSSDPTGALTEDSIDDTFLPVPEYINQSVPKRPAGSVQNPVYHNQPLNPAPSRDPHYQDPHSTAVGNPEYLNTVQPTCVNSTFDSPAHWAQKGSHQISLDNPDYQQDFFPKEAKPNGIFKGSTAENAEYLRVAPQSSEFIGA
Sequence of von Hippel-Lindau disease tumor suppressor/Epidermal growth factor receptor (Homo sapiens), P00533+P40337 [L858R,T790M] (P40337 whole entry partner): as the sequence (P40337 whole entry, looked up, the tested form may be a part) above

[8] = molecular target: T3, von Hippel-Lindau disease tumor suppressor/Estrogen receptor (Homo sapiens, UniProt P03372+P40337); test: PROTAC activity at VHL E3 ligase/ERalpha in human T47D cells assessed as maximal degradation of ERalpha protein level at 10.3 nM by Western blot analysis relative to control; assay type: cell-based
Target sequence in this assay (P03372 whole entry, looked up): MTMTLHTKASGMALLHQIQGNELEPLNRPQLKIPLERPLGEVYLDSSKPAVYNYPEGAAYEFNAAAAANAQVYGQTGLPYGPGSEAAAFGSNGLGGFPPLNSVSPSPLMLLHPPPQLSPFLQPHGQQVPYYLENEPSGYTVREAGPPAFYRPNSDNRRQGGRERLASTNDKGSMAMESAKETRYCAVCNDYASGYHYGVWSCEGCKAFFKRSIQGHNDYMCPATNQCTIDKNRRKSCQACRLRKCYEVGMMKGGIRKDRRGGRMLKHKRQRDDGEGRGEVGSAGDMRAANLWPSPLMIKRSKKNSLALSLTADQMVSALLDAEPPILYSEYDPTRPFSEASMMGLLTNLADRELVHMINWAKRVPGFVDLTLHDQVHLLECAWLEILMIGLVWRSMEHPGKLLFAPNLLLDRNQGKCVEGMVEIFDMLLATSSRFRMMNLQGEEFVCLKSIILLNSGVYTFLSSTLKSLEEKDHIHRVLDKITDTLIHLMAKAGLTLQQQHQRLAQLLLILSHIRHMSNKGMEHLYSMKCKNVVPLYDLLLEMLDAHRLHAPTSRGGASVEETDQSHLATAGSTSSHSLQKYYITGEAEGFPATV
Target sequence in this assay (P40337 whole entry, looked up): as the sequence (P40337 whole entry, looked up, the tested form may be a part) above

[9] = molecular target: T3, von Hippel-Lindau disease tumor suppressor/Estrogen receptor; test: PROTAC activity at VHL E3 ligase/ERalpha in human T47D cells assessed as maximal degradation of ERalpha protein level at 7.7 nM by Western blot analysis relative to control; assay type: cell-based
Target sequence in this assay (P03372 whole entry, looked up): as the sequence (P03372 whole entry, looked up) above
Target sequence in this assay (P40337 whole entry, looked up): as the sequence (P40337 whole entry, looked up, the tested form may be a part) above

[10] = molecular target: T4, von Hippel-Lindau disease tumor suppressor/Androgen receptor (Homo sapiens, UniProt P10275+P40337); test: PROTAC activity at VHL/AR in human LNCaP cells assessed as induction of AR degradation by Western blot analysis; assay type: cell-based
Target sequence in this assay (P10275 whole entry): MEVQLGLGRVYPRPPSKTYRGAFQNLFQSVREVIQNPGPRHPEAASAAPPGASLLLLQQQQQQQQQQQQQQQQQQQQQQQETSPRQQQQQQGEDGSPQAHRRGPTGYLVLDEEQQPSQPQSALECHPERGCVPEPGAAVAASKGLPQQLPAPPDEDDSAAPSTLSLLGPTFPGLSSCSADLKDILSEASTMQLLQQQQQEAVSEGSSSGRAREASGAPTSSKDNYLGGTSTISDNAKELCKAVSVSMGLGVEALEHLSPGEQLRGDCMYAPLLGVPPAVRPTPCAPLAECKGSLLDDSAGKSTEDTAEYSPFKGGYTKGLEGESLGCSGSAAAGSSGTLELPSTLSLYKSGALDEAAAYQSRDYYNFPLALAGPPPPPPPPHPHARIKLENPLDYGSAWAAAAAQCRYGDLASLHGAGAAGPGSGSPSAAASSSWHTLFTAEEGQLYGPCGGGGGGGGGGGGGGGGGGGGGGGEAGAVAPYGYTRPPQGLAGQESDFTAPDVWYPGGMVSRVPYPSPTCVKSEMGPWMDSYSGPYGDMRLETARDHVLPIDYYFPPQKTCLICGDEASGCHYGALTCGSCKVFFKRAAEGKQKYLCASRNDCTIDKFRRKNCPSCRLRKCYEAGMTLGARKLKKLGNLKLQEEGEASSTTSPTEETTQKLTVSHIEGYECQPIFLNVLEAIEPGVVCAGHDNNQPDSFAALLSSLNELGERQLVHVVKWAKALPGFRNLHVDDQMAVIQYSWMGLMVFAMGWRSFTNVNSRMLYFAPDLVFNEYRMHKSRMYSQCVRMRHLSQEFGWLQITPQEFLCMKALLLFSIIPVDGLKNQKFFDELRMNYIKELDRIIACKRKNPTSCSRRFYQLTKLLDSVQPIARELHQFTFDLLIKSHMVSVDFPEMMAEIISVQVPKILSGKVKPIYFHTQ
Target sequence in this assay (P40337 whole entry): as the sequence (P40337 whole entry, looked up, the tested form may be a part) above

[11] = molecular target: T4, von Hippel-Lindau disease tumor suppressor/Androgen receptor; test: PROTAC activity at VHL/AR in human LNCaP cells assessed as maximum degradation of AR at 75 uM incubated for 16 hrs by Western blot analysis relative to control; assay type: cell-based
Target sequence in this assay (P10275 whole entry, looked up): as the sequence (P10275 whole entry) above
Target sequence in this assay (P40337 whole entry, looked up): as the sequence (P40337 whole entry, looked up, the tested form may be a part) above

[12] = molecular target: T3, von Hippel-Lindau disease tumor suppressor/Estrogen receptor; test: PROTAC activity at VHL E3 ligase/ERalpha in human MCF7 cells assessed as reduction in ERalpha protein level by Western blot analysis; assay type: cell-based
Target sequence in this assay (P03372 whole entry): as the sequence (P03372 whole entry, looked up) above
Target sequence in this assay (P40337 whole entry): as the sequence (P40337 whole entry, looked up, the tested form may be a part) above

[13] = molecular target: T4, von Hippel-Lindau disease tumor suppressor/Androgen receptor; test: PROTAC activity at VHL/AR-V7 in human 22Rv1 cells assessed as induction of AR degradation by Western blot analysis; assay type: cell-based
Target sequence in this assay (P10275 whole entry, looked up, change not shown): as the sequence (P10275 whole entry) above
Target sequence in this assay (P40337 whole entry, looked up, change not shown): as the sequence (P40337 whole entry, looked up, the tested form may be a part) above

[14] = molecular target: T4, von Hippel-Lindau disease tumor suppressor/Androgen receptor; test: PROTAC activity at VHL/AR in human VCaP cells assessed as induction of AR degradation by Western blot analysis; assay type: cell-based
Target sequence in this assay (P10275 whole entry): as the sequence (P10275 whole entry) above
Target sequence in this assay (P40337 whole entry): as the sequence (P40337 whole entry, looked up, the tested form may be a part) above

SMILES: COc1cccc(/C=C2\Oc3cc(OCC(=O)N4CC(O)C[C@H]4C(=O)O)ccc3C2=O)c1 (some centres undefined)
- IC50 [1]: 2290 nM

SMILES: Cc1cc(CC(=O)N2C[C@H](O)C[C@H]2C(=O)NCc2ccc(-c3ocnc3C)cc2)on1
- IC50 [4]: 12.7 µM

SMILES: CC(=O)N[C@H](C(=O)N1C[C@H](O)[C@@H](F)[C@H]1C(=O)Nc1ccc(-c2scnc2C)cc1)C(C)(C)C
- DC50 [5]: 10 nM

SMILES: Cc1cc(CC(=O)N2C[C@H](O)C[C@H]2C(=O)NCc2cccc(Cl)c2)on1
- IC50 [6]: 117 nM

SMILES: Cc1ncsc1-c1ccc(CNC(=O)[C@H]2C[C@H](O)CN2C(=O)[C@H](NC(=O)CCCCCOCCCCOCCCCOc2cc3ncnc(Nc4ccc(F)c(Cl)c4)c3cc2NC(=O)/C=C/CN(C)C)C(C)(C)C)cc1
- Emax [7]: 79.1%

SMILES: Cc1cc([C@H](C(=O)N2C[C@H](S(=O)(=O)F)C[C@H]2C(=O)N[C@@H](CC(=O)N2CCC(C#Cc3ccc(C(=O)N[C@H]4C(C)(C)[C@H](Oc5ccc(C#N)c(C(F)(F)F)c5)C4(C)C)cc3)CC2)c2ccc(-c3scnc3C)cc2)C(C)C)on1
- DC50 [10]: 527 nM
- Emax [11]: 54%

Next, values leading:

- IC50 [2]: 26 µM
SMILES: CC(=O)N[C@H](C(=O)N1C[C@H](O)C[C@H]1C(=O)N[C@H](C)c1ccc(-c2scnc2C)cc1)C(C)(C)C

- Kd [3]: 73 nM
SMILES: Cc1ncsc1-c1ccc([C@H](C)NC(=O)[C@@H]2C[C@@H](O)CN2C(=O)[C@H](NC(=O)C2(F)CC2)C(C)(C)C)cc1F

- Kd [3]: 86 nM
SMILES: Cc1cc(-c2scnc2C)ccc1[C@H](C)NC(=O)[C@@H]1C[C@@H](O)CN1C(=O)[C@H](NC(=O)C1(C#N)CC1)C(C)(C)C

- Kd [3]: 134 nM
SMILES: COc1cc(-c2scnc2C)c(F)cc1CNC(=O)[C@@H]1C[C@@H](O)CN1C(=O)[C@H](NC(=O)C1(F)CC1)C(C)(C)C

- DC50 [5]: 1 nM
SMILES: CC(=O)N[C@H](C(=O)N1C[C@H](O)[C@H](F)[C@H]1C(=O)Nc1ccc(-c2scnc2C)cc1)C(C)(C)C

- Kd [3]: 37 nM
SMILES: Cc1cc(-c2scnc2C)ccc1[C@H](C)NC(=O)[C@@H]1C[C@@H](O)CN1C(=O)[C@H](NC(=O)C1(F)CC1)C(C)(C)C

- Emax [8]: 98%
- Emax [9]: 98%
SMILES: Cc1ncsc1-c1ccc([C@H](C)NC(=O)[C@@H]2C[C@@H](O)CN2C(=O)[C@@H](NC(=O)CCCCOc2ccc(CCNC(=O)c3ccc(C(=O)c4c(-c5ccc(O)cc5)sc5cc(O)ccc45)cc3)cc2)C(C)(C)C)cc1

- DC50 [12]: 10 nM
- Emax [9]: > 95%
SMILES: Cc1ncsc1-c1ccc([C@H](C)NC(=O)[C@@H]2C[C@@H](O)CN2C(=O)[C@@H](NC(=O)CCCCOc2ccc(/C=C/NC(=O)c3ccc(C(=O)c4c(-c5ccc(O)cc5)sc5cc(O)ccc45)cc3)cc2)C(C)(C)C)cc1

- DC50 [13]: 370 nM
- DC50 [14]: 2000 nM
SMILES: Cc1ncsc1-c1ccc([C@@H](C)NC(=O)[C@H]2C[C@H](O)CN2C(=O)[C@H](NC(=O)CCCCCNC(=O)COc2ccccc2-c2csc(N3CCOCC3)n2)C(C)(C)C)cc1
